# Assay results: patent publication US9988407B2, “Prodrugs of prostate specific membrane antigen (PSMA) inhibitor” (THE JOHNS HOPKINS UNIVERSITY, priority 2014, dated 2018)
# Entries after “also recorded” stand apart in the source; their conditions may differ.
# How the values were obtained:
# [1] = PK of JAM0388 after oral gavage, 2-PMPA in brain and plasma; format: in vivo; details: 30 mg/kg equivalent of 2-PMPA by oral gavage
# [2] = Metabolic stability in mouse plasma; format: in vitro ADME; details: 10 μM, 37° C.
# Method: (§1) For metabolic stability, plasma (mouse, dog, monkey and human) and liver microsomes (mouse, dog, monkey and human) were used. For stability, prodrugs (10 μM) were spiked in each matrix and incubated in an orbital shaker at 37° C. At predetermined times (0, 30 and 60 min), 100 μL aliquots of the mixture in triplicate were removed and the reaction quenched by addition of three times the volume of ice cold acetonitrile spiked with the internal standard (losartan 5 μM). The samples were vortexed for 30 s and centrifuged 12000 g for 10 min. 50 μL supernatant diluted with 50 μL water was transferred to a 250 μL polypropylene vial sealed with a Teflon cap. Prodrug disappearance was monitored over time using a liquid chromatography and tandem mass spectrometry (LC/MS/MS) method as described below.
# (§2) For LC/MS/MS, prodrugs were separated with Thermo Scientific Accela UPLC system coupled to Accela open autosampler on an Agilent C18 (100×2.1 mm id) UPLC column. The autosampler was temperature controlled and operating at 10° C. The mobile phase used for the chromatographic separation was composed of acetonitrile/water containing 0.1% formic acid and was run at a flow rate of 0.5 mL/minute for 4.5 minutes using gradient elution. The column effluent was monitored using TSQ Vantage triple-quadrupole mass spectrometric detector, equipped with an electrospray probe set in the positive ionization mode. Samples were introduced into the ionization source through a heated nebulized probe (350° C.).
# (§3) For quantification of compound remaining, disappearance of prodrugs was measured from ratio of peak areas of analyte to IS. Percentage remaining was calculated in the following manner: […]
# [3] = Metabolic stability in mouse liver S9; format: in vitro ADME; details: Mouse S9, 10 μM, 37° C.
# [4] = Metabolic stability in mouse liver microsomes; format: in vitro ADME; details: 10 μM, 37° C.
# Method: as §1, §2, §3
# [5] = Metabolic stability in human plasma; format: in vitro ADME; details: 10 μM, 37° C.
# Method: as §1, §2, §3
# [6] = Metabolic stability in human liver microsomes; format: in vitro ADME; details: 10 μM, 37° C.
# Method: as §1, §2, §3
# [7] = In vivo pharmacokinetics in mice, peroral, bioanalysis method 1 (total prodrug exposure); details: mice, oral dosing
# Method: Blood was obtained via cardiac puncture and tissue dissected at 0 min, 15 min, 30 min, 1 h, 2 h, and 4 h post dose (n=3 per time point). Single time point studies were conducted at 30 min (N=3) following dosing. Plasma was harvested from blood by centrifugation. Mean concentration-time data was used for pharmacokinetic (PK) analysis. Non-compartmental-analysis module in WinNonlin® (version 5.3) was used to assess pharmacokinetic parameters. Peak plasma concentrations (Cmax) and time to Cmax (Tmax) were the observed values. Area under the curve (AUC) was calculated by log-linear (p.o.) trapezoidal rule to the end of sample collection (AUClast) and extrapolated to infinity (AUC0-∞) by dividing the last quantifiable concentration by the terminal disposition rate constant (ke). Terminal half-life (t1/2) was estimated from first order kinetics: t1/2=0.693/ke.
# Briefly, prior to extraction, frozen samples were thawed on ice. For plasma extraction, 50 μL of the calibration standards or samples were transferred into silanized microcentrifuge tubes. Sample preparation involved a single liquid extraction by addition of 300 μL of methanol as extraction solution with internal standard (i.e., 5 μM of 2-PMSA in methanol), followed by vortexing for 30 s and then centrifugation at 12000 g for 10 min. Supernatant was transferred (˜250 μL) and evaporated to dryness at 40° C. under a gentle stream of nitrogen. The residue was reconstituted with 100 μL of derivatizing agent, n-butanol with 3N HCl, and samples were vortexed. The samples were heated at ˜60 OC in a shaking water bath for 30 min. At the end of 30 min, the derivatized samples were allowed to cool at room temperature and dried again for removal of derivatizing reagent, under a gentle stream of nitrogen. The residue was reconstituted in 100 μL of 30% acetonitrile in water v/v. The samples were vortexed and centrifuged again. ˜80 μL supernatant was transferred to a 250 μL polypropylene vial sealed with a Teflon cap and a volume of 10 μL was injected onto the ultra-performance liquid chromatography (UPLC) instrument for quantitative analysis. Chromatographic analysis was performed using an Accela™ ultra high-performance system consisting of an analytical pump, and an autosampler coupled with TSQ Vantage mass spectrometer (Thermo Fisher Scientific Inc., Waltham Mass.). […] The mobile phase used was composed of 0.1% formic acid in acetonitrile and 0.1% formic acid in H2O with gradient elution, starting with 20% (organic) linearly increasing to 65% up to 2.5 min, maintaining at 65% (2.5-3.5 min) and reequilibrating to 30% by 5 min. The total run time for each analyte was 5.0 min.
# [8] = In vivo pharmacokinetics in mice, peroral, bioanalysis method 2 (2-PMPA release); details: mouse, in vivo
# Method: Blood was obtained via cardiac puncture and tissue dissected at 0 min, 15 min, 30 min, 1 h, 2 h, and 4 h post dose (n=3 per time point). Single time point studies were conducted at 30 min (N=3) following dosing. Plasma was harvested from blood by centrifugation. Mean concentration-time data was used for pharmacokinetic (PK) analysis. Non-compartmental-analysis module in WinNonlin® (version 5.3) was used to assess pharmacokinetic parameters. Peak plasma concentrations (Cmax) and time to Cmax (Tmax) were the observed values. Area under the curve (AUC) was calculated by log-linear (p.o.) trapezoidal rule to the end of sample collection (AUClast) and extrapolated to infinity (AUC0-∞) by dividing the last quantifiable concentration by the terminal disposition rate constant (ke). […] The tissues were stored in −20° C. for 1 h and then homogenized. The calibration curve for the tissues was developed using naïve mouse brains from untreated animals as a matrix. For sciatic nerve, the nerves were weighed and homogenized in 50 μL methanol and the calibration curve was developed using naïve sciatic nerves from untreated animals as a matrix. The samples were vortexed and centrifuged. […] Supernatant was dried under a gentle stream of nitrogen at 45° C. and the residue reconstituted with 75 μL of acetonitrile and vortexed. 25 μL of derivatizing agent N-tert-Butyldimethysilyl-N-methyltrifluoro-acetamide (MTBSTFA) was added to microcentrifuge tubes, vortexed, and heated at ˜60 OC for 40 min. At the end of 40 min, the derivatized samples ˜75 μL were transferred to a 250 μL polypropylene vials and were analyzed via LC/MS/MS. Chromatographic analysis was performed using an Accela™ ultra high-performance system consisting of an analytical pump, and an autosampler coupled with TSQ Vantage mass spectrometer (Thermo Fisher Scientific Inc., Waltham Mass.). […] The total run time for each analyte was 5.0 min. Chromatographic analysis will be performed on Accela UPLC.
# [9] = In vitro metabolic stability screen in plasma and liver subcellular fractions (results in words); format: in vitro ADME; details: 60 min incubation
# Method: as §1, §2
# For quantification of compound remaining, disappearance of prodrugs was measured from ratio of peak areas of analyte to IS. Percentage remaining was calculated in the following manner:
# In general, the prodrugs were screened by an in vitro metabolic stability screen, and if positive, followed by an in vivo single time point pharmacokinetic study, and in select cases, an in vivo full time course pharmacokinetic study (FIG. 3). In this Example, the four acidic functional groups in 2-PMPA were systematically capped. The carboxylic acids were first masked with simple alkyl esters (Compounds 1, 2, and 3). In vitro chemical and metabolic stability of the prodrugs then were conducted, following 60 min incubation in plasma stability screens for prodrugs.
# DSS-induced colitis = experiment: DSS-induced murine model of colitis; format: in vivo, C57/B6 mice
# Method: Disease activity index (DAI), which positively correlated with the disease severity, was used as a measure for clinical activity. * P<0.05;
# (§4) To investigate whether PSMA can be a suitable novel therapeutic target for clinical intervention against IBD, the effect of PSMA prototype inhibitors on three most widely used murine models of IBD was tested, including DNBS-induced colitis, DSS-induced colitis, and IL-10 knockout (IL-10 KO) mice (a genetic model that develops spontaneous colitis). In all three models, PSMA inhibitor treatment dramatically ameliorated symptoms. […] The improvement of these prolapse-retracting mice was unequivocally obvious in that their body weight increased dramatically when compared to that of untreated control IL-10 KO mice (FIG. 21C).
# PSMA = target: T1, PSMA (Mus musculus, UniProt O35409); experiment: PSMA activity in colonic or cecal mucosa of DSS-treated mice; format: in vivo; details: DSS-induced colitis, mucosa extract
# T1 construct: from tissue; host or cells: colonic or cecal mucosa of C57/B6 mice with DSS-induced colitis
# T1 sequence (O35409 whole entry): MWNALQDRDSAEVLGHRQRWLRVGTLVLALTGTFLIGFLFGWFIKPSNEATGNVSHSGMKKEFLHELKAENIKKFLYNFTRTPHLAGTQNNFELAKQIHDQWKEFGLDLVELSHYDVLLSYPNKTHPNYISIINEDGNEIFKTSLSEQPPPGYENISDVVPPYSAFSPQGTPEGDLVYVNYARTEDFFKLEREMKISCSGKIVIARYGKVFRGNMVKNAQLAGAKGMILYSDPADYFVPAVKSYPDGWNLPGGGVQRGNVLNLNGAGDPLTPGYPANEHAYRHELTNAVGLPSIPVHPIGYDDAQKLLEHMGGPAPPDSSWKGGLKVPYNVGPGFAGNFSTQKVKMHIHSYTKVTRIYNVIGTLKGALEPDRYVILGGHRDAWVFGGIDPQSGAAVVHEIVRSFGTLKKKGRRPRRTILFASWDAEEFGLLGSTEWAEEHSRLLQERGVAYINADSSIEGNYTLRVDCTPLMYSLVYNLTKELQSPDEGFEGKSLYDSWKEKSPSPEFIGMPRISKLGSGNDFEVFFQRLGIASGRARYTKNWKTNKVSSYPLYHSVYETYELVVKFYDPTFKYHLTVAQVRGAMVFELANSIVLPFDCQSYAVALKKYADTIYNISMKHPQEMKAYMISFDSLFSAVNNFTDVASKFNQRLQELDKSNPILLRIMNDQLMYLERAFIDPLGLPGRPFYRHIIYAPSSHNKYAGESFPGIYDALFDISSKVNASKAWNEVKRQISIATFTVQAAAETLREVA
# Method: PSMA activity was measured using extract from mucosa;
# as §4
# [10] = test system: spontaneous colitis in IL-10 KO mice; experiment: Spontaneous colitis in IL-10 knockout mice; format: in vivo, IL-10 KO mice (C57/B6)
# Method: as §4
# EAE = details: cited from earlier work
# [11] = cited from earlier work
molecule,measurement,setting,value
4-((diphenoxyphosphoryl)methyl)-5-(((isopropoxycarbonyl)oxy)methoxy)-5-oxopentanoic acid [Compound 30],brain levels of 2-PMPA,[1]; brain at 30 min and 5 h,low at both time points
same,release of 2-PMPA in plasma,[1]; plasma at 30 min and 5 h,excellent release of 2-PMPA in plasma
"CCOC(=O)CCC(CP(=O)(O)O)C(=O)OCC (centres unmarked) [Compound 2, [5-Ethoxy-2-(ethoxycarbonyl)-5-oxopentyl]phosphonic acid]",Percentage remaining,[2]; 0 min,100%
same,Percentage remaining,[2]; 30 min,99%
same,Percentage remaining,[2]; 60 min,83%
same,Percentage remaining,[3]; 0 min,100%
same,Percentage remaining,[3]; 30 min,103%
same,Percentage remaining,[3]; 60 min,103%
same,Percentage remaining,[4]; 0 min,100%
same,Percentage remaining,[4]; 30 min,99%
same,Percentage remaining,[4]; 60 min,88%
same,Percentage remaining,[5]; 0 min,100%
same,Percentage remaining,[5]; 30 min,81%
same,Percentage remaining,[5]; 60 min,59%
same,Percentage remaining,[6]; 0 min,100%
same,Percentage remaining,[6]; 30 min,88%
same,Percentage remaining,[6]; 60 min,73%
same,permeability in vivo,[7],showed the most permeability
same,stability of carboxylic esters in vivo,[8],too stable in vivo
same,in vitro metabolic stability,[9],too stable
"O=C(O)CCC(CP(=O)(O)O)C(=O)O (centres unmarked) [Compound 2-PMPA, 2-phosponomethyl pentanedioic acid]",dose response,"DSS-induced colitis; 1, 10, and 100 mg/kg i.p., murine IBD models",dose dependent effect with 100 mg/kg provided the most benefit
same,efficacy,"DSS-induced colitis; i.p. administration at 100 mg/kg, DSS model",excellent efficacy
same,PSMA activity in colonic or cecal mucosa,PSMA,effectively suppresses PSMA activity
same,"disease severity (macroscopic disease, prolapse), words",[10]; 100 mg/kg for 2 weeks,not only improvement of disease but even retraction of prolapse; also recorded: significantly reduced the disease severity
same,"complete retraction of prolapse, share of treated mice",[10]; 2 of the 20 mice,10%
same,efficacy,"[10]; i.p. administration at 100 mg/kg, IL 10 knock out model",excellent efficacy
same,cognitive function,"EAE; EAE mice, Barnes maze",improves cognitive function; also recorded: cognition was significantly improved
same,brain NAAG,"EAE; EAE mice, post mortem analysis",elevates NAAG; also recorded: significant increase in brain NAAG
same,physical severity of EAE,EAE; EAE mice,no difference in physical severity was observed
same,"fear conditioning, fear memory",EAE; EAE+2-PMPA vs EAE+Vehicle,significant difference between fear memory
same,oral availability F,[11]; 2-PMPA itself,< 1%
same,concentrations in the brain,[11]; after 50-100 mg/kg intraperitoneal injection (i.p.) doses,30 to 50 µM
